Where two headings read alike, the source gives them in different places. Where a SMILES comes first, the peptide text is derived from it.
Assays:
[1] = target: T1, KcsA-Kv1.1 T+F chimera (Streptomyces lividans, UniProt P0A334, A54E/A57S/G53E/G56E/I60S/L59F/L81M/P55A/Q58H/R52A/R64D/T61S/Y62I); assay: Phage-binding competition assay, KcsA-Kv1.1 T+F; set-up: species or system human Kv1.1 turret and filter in Streptomyces lividans KcsA
T1 sequence (P0A334 1-160 R52A/G53E/A54E/P55A/G56E/A57S/Q58H/L59F/I60S/T61S/Y62I/R64D/L81M): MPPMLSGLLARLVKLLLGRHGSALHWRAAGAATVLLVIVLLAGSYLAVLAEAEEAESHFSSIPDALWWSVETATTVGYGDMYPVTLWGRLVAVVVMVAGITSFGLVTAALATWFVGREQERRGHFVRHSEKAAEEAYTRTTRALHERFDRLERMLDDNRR
Protocol: Phage stock solutions were diluted to working concentration with phage resuspension buffer supplemented with 2 mM DDM. For protein immobilization, the following amounts were used in a final volume of 50 μl/well: wt KcsA, 0.1 μg; KcsA-Kv1.1 T-only, 0.005 μg; KcsA-Kv1.1 T+F, 0.02 μg; KcsA-Kv1.2 T-only, 0.01 μg; KcsA-Kv1.2 T+F, 0.1 μg; KcsA-Kv1.3 T-only, 0.01 μg; and KcsA-Kv1.3 T+F, 0.1 μg. Protein samples were diluted in 50 μl of storage buffer (20 mM Tris pH8.0, 300 mM KCl, 2 mM DDM) and were added to the designated wells of a Pierce Clear, 96-Well Nickel Coated Plate (15442, Thermo Fisher Scientific), then incubated for 1 h at room temperature on a horizontal shaker at 130 rpm. The plate was blocked for 1 h at room temperature with 180 μl/well TBS-BSA supplemented with 1 mM DDM. Following blocking, the wells were washed 4× with washing buffer (300 μl TBS-Tween, 0.1% v/v) using a Wellwash Versa microplate washer (Thermo Fisher Scientific); then 50 μl phage solution (in TBS-BSA-Tween, 0.1% v/v, 2 mM DDM) at determined phage concentration was added to the wells and incubated for 1 h at room temperature on a horizontal shaker. The plate was washed 4× with washing buffer, then 50 μl anti-M13 IgG HRP (MA5-36125, Invitrogen) diluted to 1:2500 in TBS-Tween (0.1% v/v) was added to the wells and incubated for 1 h at room temperature. The plate was washed again 4× with 300 μl/well washing buffer. Finally, 50 μl/well 1-Step Ultra TMB-ELISA solution (34028, Thermo Fisher Scientific) was added to the wells, and the developing signal was stopped with 50 μl 1M HCl after 5 to 10 min. The light absorbance signal was read at 450 nm with Byonoy absorbance 96 plate reader (Byonoy GmbH).
For protein immobilization, the following amounts were used in a final volume of 50 μl/well: KcsA-Kv1.1 T-only, 0.005 μg; KcsA-Kv1.1 T+F, 0.01 μg; KcsA-Kv1.2 T-only, 0.025 μg; KcsA-Kv1.2 T+F, 0.0125 μg; KcsA-Kv1.3 T-only, 0.01 μg; and KcsA-Kv1.3 T+F, 0.1 μg. Protein samples were diluted in storage buffer. Binding of given concentrations of relevant ligand-displaying phages quantified by light absorbance ([…]) were investigated in a similar manner as in phage ELISA-binding assay, while different concentrations of competing toxin test substances were applied simultaneously. The results were converted to percent inhibitions (percent displacement) of the indicator phage binding, and relative affinities of the tested toxins were assessed by plotting percent displacements against log concentrations and determining half maximal inhibitory concentrations (IC50) by sigmoidal curve fitting using “Sigmoidal dose-response (variable slope) with least squares method” algorithm in GraphPad Prism 8 using the following equation: Y=Bottom+Top−Bottom/1+10^(LogEC50−×)⋅HillSlope

[2] = tested on: human Kv1.2 channel (hKv1.2); assay: Whole-cell patch-clamp, hKv1.2-expressing CHO cells; type: cell-based; settings: see Table 1 and Fig. S2; 10 nM peptide in patch-clamp
Protocol: Chinese Hamster Ovarian cells were grown in Dulbecco’s modified Eagle’s medium–high glucose supplemented with 10% FBS, 2 mM L-glutamine, 100 U/ml penicillin-g, and 100 μg/ml streptomycin (Invitrogen) at 37 °C in a 5% CO2 and 95% air humidified atmosphere. Cells were passaged twice per week following a 5 min incubation in PBS containing 0.2 g/L EDTA. Chinese Hamster Ovarian cells were transiently transfected with plasmids encoding human Kv1.1 (hKCNA1 gene) and human Kv1.2 (hKCNA2 gene) in pCMV6-AC-GFP plasmid (RG211000 and RC222200, OriGene Technologies) using Lipofectamine 2000 (Invitrogen) following the manufacturer’s protocol, then cultured under standard conditions. Transfected cells were washed twice with 2 ml of extracellular solution (ECS, see below) and replated onto 35 mm polystyrene cell culture dishes (Cellstar, Greiner Bio-One) before the patch-clamp experiments. […] In general, currents were recorded 24 to 36 h after transfection.
Conventional whole-cell patch-clamp electrophysiology was used to record ionic currents. Micropipettes were pulled from GC150F-7.5 borosilicate capillaries (Harvard Apparatus) with tip diameters between 0.5 and 1 μm resulting in a tip resistance of 2 to 8 MΩ in the extracellular (bath) solution. […]
Native peptides, phage-expressed peptides, and positive controls used for them were dissolved in ECS supplemented with 0.1 mg/ml bovine serum albumin (BSA; Sigma-Aldrich Hungary). Bath perfusion around the measured cell with different extracellular solutions was achieved using a gravity flow micro perfusion system using a rate of 0.5 ml/min. […]
Voltage protocols: For measurement of Kv1.1 to 1.3 currents, voltage steps to +50 mV were applied from a holding potential of −120 mV and the peak current was measured every 15 s. […] The remaining current fraction at a given molar concentration was calculated as I/I0, where I0 is the peak current in the absence and I is the peak current at equilibrium block or […] after ∼2 min perfusion by the investigated peptide/phage.

[3] = displacement of ShK-phage, KcsA-Kv1.1 T+F 0.01 μg/well on nickel-coated plate, mean ± SD (n = 3), NQ = not quantifiable, read-out: IC50, T+F chimera (Kv1.1)

SMILES	IC50 [1, 3]	potency ranking, Kv1.2 [2]	IC50 ([1]; ShK-phage competition, T+F KcsA-Kv1.1, value given in figure, sigmoidal fit to means of three replicates, read-out: IC50 (Fig. 8F))
CC[C@H](C)[C@H](NC(=O)[C@H](CCC(=O)O)NC(=O)[C@@H](NC(=O)CN)C(C)C)C(=O)N[C@@H](CC(N)=O)C(=O)N[C@H](C(=O)N[C@@H](CCCCN)C(=O)N[C@H]1CSSC[C@@H]2NC(=O)[C@H](CCCCN)NC(=O)CNC(=O)[C@H](Cc3ccccc3)NC(=O)[C@H](CCCNC(=N)N)NC(=O)[C@H](CCSC)NC(=O)CNC(=O)[C@H](C)NC(=O)[C@H](CC(=O)O)NC(=O)[C@H](CCCCN)NC(=O)[C@@H]3CSSC[C@@H](C(=O)N[C@H](C(=O)N4CCC[C@H]4C(=O)N[C@@H](CCCCN)C(=O)O)[C@@H](C)O)NC(=O)[C@H](Cc4c[nH]cn4)NC(=O)[C@H](CSSC[C@H](NC(=O)[C@H](CCC(N)=O)NC(=O)[C@@H]4CCCN4C(=O)[C@H](CO)NC(=O)CNC(=O)[C@H](CO)NC1=O)C(=O)N[C@@H](CC(C)C)C(=O)N[C@@H](CCCCN)C(=O)N1CCC[C@H]1C(=O)N3)NC(=O)[C@H](CCCCN)NC(=O)[C@H](CCCNC(=N)N)NC(=O)[C@H](CC(N)=O)NC(=O)[C@H](CCSC)NC2=O)C(C)C [KTX1, Kaliotoxin-1]	1.49 nM	MTX > ShK >> KTX1	–
CC[C@H](C)[C@@H]1NC(=O)[C@@H]2CSSC[C@H](NC(=O)[C@H](CO)NC(=O)[C@@H](N)C(C)C)C(=O)N[C@@H]([C@@H](C)O)C(=O)NCC(=O)N[C@@H](CO)C(=O)N[C@@H](CCCCN)C(=O)N[C@@H](CC(=O)O)C(=O)N[C@@H](CSSC[C@@H](C(=O)N[C@@H](CCCCN)C(=O)N[C@H]3CSSC[C@@H](C(N)=O)NC(=O)CNC(=O)[C@H](Cc4ccc(O)cc4)NC3=O)NC(=O)[C@H](CO)NC(=O)[C@H](CCCCN)NC(=O)[C@H](CC(N)=O)NC1=O)C(=O)N[C@@H](Cc1ccc(O)cc1)C(=O)N[C@@H](C)C(=O)N1CCC[C@H]1C(=O)N[C@H]1CSSC[C@H](NC(=O)CNC(=O)[C@H]([C@@H](C)O)NC(=O)[C@H](CCC(N)=O)NC(=O)[C@H](CCCCN)NC(=O)[C@H](CCCNC(=N)N)NC1=O)C(=O)N1CCC[C@H]1C(=O)N[C@@H](CC(N)=O)C(=O)N[C@@H](C)C(=O)N[C@@H](CCCCN)C(=O)N2 [MTX, Maurotoxin] (HELM PEPTIDE1{V.S.C.T.G.S.K.D.C.Y.A.P.C.R.K.Q.T.G.C.P.N.A.K.C.I.N.K.S.C.K.C.Y.G.C.[am]}$PEPTIDE1,PEPTIDE1,3:R3-24:R3|PEPTIDE1,PEPTIDE1,9:R3-29:R3|PEPTIDE1,PEPTIDE1,13:R3-19:R3|PEPTIDE1,PEPTIDE1,31:R3-34:R3$$$V2.0; N-terminus and C-terminus assumed)	> 1000 nM	MTX > ShK >> KTX1	–
CC[C@H](C)[C@@H]1NC(=O)[C@@H](NC(=O)[C@H](CO)NC(=O)[C@@H](N)CCCNC(=N)N)CSSC[C@@H](C(=O)O)NC(=O)[C@H]([C@@H](C)O)NC(=O)CNC(=O)[C@@H]2CSSC[C@@H]3NC(=O)[C@H](CCC(N)=O)NC(=O)[C@H](Cc4ccccc4)NC(=O)[C@H](C)NC(=O)[C@H]([C@@H](C)O)NC(=O)[C@H](CSSC[C@H](NC(=O)[C@H](Cc4ccccc4)NC(=O)[C@H](CO)NC(=O)[C@H](CC(C)C)NC(=O)[C@H](CCCNC(=N)N)NC(=O)[C@H](Cc4ccc(O)cc4)NC(=O)[C@H](CCCCN)NC(=O)[C@H](CCSC)NC(=O)[C@H](CO)NC(=O)[C@H](Cc4c[nH]cn4)NC(=O)[C@H](CCCCN)NC3=O)C(=O)N[C@@H](CCCNC(=N)N)C(=O)N[C@@H](CCCCN)C(=O)N[C@@H]([C@@H](C)O)C(=O)N2)NC(=O)[C@H](CCCNC(=N)N)NC(=O)[C@H](CO)NC(=O)[C@H](CCCCN)NC(=O)[C@@H]2CCCN2C(=O)[C@H]([C@@H](C)CC)NC(=O)[C@H]([C@@H](C)O)NC(=O)[C@H](CC(=O)O)NC1=O [ShK, Stichodactyla toxin]	–	MTX > ShK >> KTX1	0.271 nM
